The source of these data is a melting point compilation (Tetko et al.; mined from patent text by program, amines drawn as free bases though some values may be those of a salt).

One may read the melting point as the temperature, or range, at which the solid turns liquid.

In the case of `COCCNC(=O)c1nc(C)c2cc(Cc3ccc(F)cc3)cnc2c1OCc1ccccc1`, the melting point lay within 167 to 168 °C.
`CC(C)C(=O)N[C@@H](CSC(=O)C(C)C)C(=O)NCCSC(=O)C(C)(C)C` had a melting point of 105 to 107 °C.
In turn, `Cc1nc2ccccc2c(NCc2ccccc2)c1C(=O)O` returned a melting point of 190 °C.
Turning to `O=c1n(CC2CN(Cc3ccccc3)CCO2)c2ccccc2n1-c1ccccc1` (centres undefined), the melting point came to 90 °C.
The molecule `CC(C)=C1C(=O)N(c2ccc(O)cc2)C(=O)/C1=C(\C)c1cc(C)oc1C` returned a melting point of 206 to 208 °C.
`Cc1cc(Oc2cccnc2)c(S(C)(=O)=O)cc1C(=O)N=C(N)N` showed a melting point of 221 to 224 °C.
Consider `CCc1cc(Cl)c2c(=O)cc(C(=O)O)[nH]c2c1`, for which the melting point was in the range of 248 to 250 °C.
In the case of `Cc1[nH]c(-c2ccccc2)nc1-c1ccc(Cl)c(Cl)c1`, the melting point fell in the range of 169 to 171 °C.
`CCCCCc1ccc(OC(=O)Oc2ccc([N+](=O)[O-])cc2)cc1`: the melting point lay in the range of 67 to 69 °C.
In the case of `O=c1oc(-c2ccc(F)cc2)nc2cccc(Cl)c12`, the melting point was 159 to 162 °C.
Molecule `Cc1ccc2c(c1)C(=O)N(CCN1CCC(c3noc4cc(F)ccc34)CC1)C2=O` showed a melting point of 138 to 140 °C.
Turning to `O=C1c2cccc([N+](=O)[O-])c2C(=O)N1c1cccc2ccc(O)cc12`, the melting point is 136 to 137 °C.
`CCOC(=O)N1CCC(Nc2ccc(F)cc2[N+](=O)[O-])CC1` registered a melting point of 115 to 116 °C.
For the molecule `CC1CCN(CCNc2ccnc3cc(Cl)ccc23)CC1`, the melting point lay in the range of 154 to 156 °C.
For `COc1ccccc1NC1=NN(S(=O)(=O)c2ccc(C)cc2)CC1` the value was 176 to 179 °C.
As for `C=CCOc1cc(NC(C)=O)c(Cl)cc1C(=O)OC`, the melting point is 110 to 112 °C.
`CC(C)Oc1ccc(/C=C(\NC(=O)c2ccc(OCCC(F)(F)F)cc2)C(=O)NCCO)cc1` gave a melting point of 84 to 86 °C.
`C#CCOc1cc(Oc2ccc(OC)cc2)ncn1` registered a melting point of 72 °C.
In turn, `CCCc1c(OCCCSc2ccc(-c3nnn[nH]3)cc2)ccc(C(C)=O)c1O` displayed a melting point of 114 to 116 °C.
On to `Cn1nnc2c1C(=O)C(Cl)=C(Cl)C2=O`, for which the melting point is 254 to 255 °C.
In the case of `NP(N)(=S)N1CCCCC1`, the melting point lay within 97 to 102 °C.
`CN1Cc2c(C#CC3(O)CCCC3)ncn2-c2cccc(Cl)c2C1=O`: the melting point lay in the range of 207 to 208 °C.
The same measure for `CS(=O)(=O)c1ccc(Oc2cc(OCc3ccccc3)c3[nH]c(C(=O)O)cc3c2)cc1`: 232 to 233 °C; for `Cc1ccccc1-c1nc(-c2cccc(Cl)c2)nn1C`: 77 to 78 °C.
The molecule `O=S1(=O)CCC(NCCNC2CCS(=O)(=O)C2)C1` (centres undefined) displayed a melting point of 60 to 85 °C.
`C=CCNC(=O)N1C[C@@H](Oc2cccc(C(F)(F)F)c2)[C@@H]1C` (relative stereo) gave a melting point of 55 to 57 °C.
Molecule `Cc1nc2c3c(c(C(=O)N4CCOCC4)cc2n1C)CCC1(Cc2ccccc2C1)N3` yielded a melting point of 284 to 285 °C.
As for `Nc1cccc2c3c([nH]c12)C=C(NC(=O)c1ccc(F)cc1)C=CC3`, the melting point was in the range of 121 to 122 °C.
In turn, `COC(=O)Cc1c(-c2ccc3c(c2)OCO3)c2ccccc2n(Cc2ccccc2OC)c1=O` showed a melting point of 71 to 72 °C.
With `O=C(NCc1ccc(F)cc1)c1ccnc(N2CCN(Cc3ccc(F)cc3)C2=O)c1`, the melting point lay in the range of 173 to 175 °C.
For the molecule `Oc1ccc(Cc2noc3cc(O)ccc23)cc1`, the melting point was 178 °C.
Turning to `N#Cc1ncc(SCC(=O)O)nc1C#N`, the melting point fell in the range of 141 to 143 °C.
For `C=CCc1c(O)ccc2ccc(=O)[nH]c12` the value was 207 to 209 °C.
For the molecule `O=c1c2ccccc2n(SC(Cl)(Cl)Cl)c(=O)n1SC(Cl)(Cl)Cl`, the melting point fell in the range of 154 to 156 °C.
`CSc1nccc(-c2c3cccnc3n3c(N)nccc23)n1` displayed a melting point of 223 to 224 °C.
`CC(C)(C)OC(=O)N1CCN(C(=O)N2CCOCC2)CC1`: the melting point lay in the range of 171 to 173 °C.
For the molecule `O=C(O)CCC(Cc1ccccc1)(C(=O)C=Cc1ccc(Cl)cc1)c1ccccc1` (centres undefined), the melting point lay within 160 to 170 °C.
In turn, `Clc1ccc(C(CCC2CCCC2)Cn2cncn2)c(Cl)c1` (centres undefined) yielded a melting point of 71 °C.
With `O=C(NCCCCCCCCNC(=O)c1ccc2c(c1)OCO2)c1ccc2c(c1)OCO2`, the melting point lay in the range of 179 to 180 °C.
On to `Cc1nc(N2CCN(Cc3ccc(C(F)(F)F)cc3)C2=O)sc1-c1cc[nH]n1`, for which the melting point lay in the range of 212 to 213 °C.
For `CCCCCCC(=S)SCCCC` the value was 46 to 47 °C; for `Cc1oc(-c2ccccc2)nc1COc1ccc(CCn2cc(CCC(=O)O)c(-c3ccccc3)n2)cc1`, 85 to 86 °C; for `CCCn1c2ccccc2c2c3c(nc(C)c21)CC(C)(C)CC3=O`, 123 to 125 °C.
In turn, `O=C(Cc1ccccc1)Nc1ccc2c(c1)C(=O)c1cc(NC(=O)Cc3ccccc3)ccc1C2=O` displayed a melting point of 224 °C.
The same measure for `CCN1c2ncccc2C(=O)N(C)c2ccc(-c3c[nH]c(C#N)c3)nc21`: 268 to 269 °C; for `Cn1c([N+](=O)[O-])cnc1CSc1ccccn1`: 108 °C.
Take `COC(=O)C1(NC(=O)C2(Br)SC=C(Br)C2Br)CCCCCC1` (centres undefined): the melting point was 165 to 168 °C.
`NC(=O)c1c(Cl)c(-c2ccccc2)n2c1CN(S(=O)(=O)c1ccccc1)CC2` displayed a melting point of 250 to 252 °C.
`O=c1oc(C(Cl)Cl)nc2c(C(F)(F)F)cccc12` displayed a melting point of 179 °C.
As to `CC1(C)CCC(C)(C)c2cc(C#CCO)ccc21`, the melting point lay within 84 to 85 °C.
Molecule `CCOC(=O)c1c(CN(CC)CC)nc2sc3c(c2c1-c1ccc(OC)c(OC)c1)CCN(C(=S)Nc1ccccc1)C3` registered a melting point of 104 to 106 °C.
Consider `COc1cccc(N2CCN(c3ccc(S(=O)(=O)N[C@@H](Cc4ccccc4)C(=O)O)cc3)CC2)c1`, for which the melting point was in the range of 137 to 139 °C.
For `O=C(O)[C@H](Cc1ccc(O)cc1)NS(=O)(=O)c1ccc(N2CCC(c3ccccc3)CC2)cc1`, the melting point lay in the range of 108 to 110 °C.
Molecule `O=[N+]([O-])CS(=O)(=O)c1ccc2c(c1)CCN2` registered a melting point of 139 °C.
For `O=C(N[C@H]1CC[C@H](CCN2CCN(c3nccc4c3OCC4)CC2)CC1)c1ccc2ncccc2c1`, the melting point is 212 °C.
The molecule `O=C(c1cccc2nc3n(c12)CCCN3c1ccc(Cl)cc1Cl)C1CC1` returned a melting point of 189 to 190 °C.
Turning to `Cc1ccc(-c2[nH]c(-c3ccccc3)nc2C(=O)Nc2nc(-c3ccccc3)cs2)cc1`, the melting point lay within 274 to 276 °C.
With `N=c1[nH]c(=N)c2ncn(C3OC(CO)C(O)C3O)c2c(=N)[nH]1` (centres undefined), the melting point is greater than 200 °C.
`O[C@@H]1CCN(Cc2nc(-c3ccc4c(c3)Nc3ccccc3S4)cs2)C1` returned a melting point of 178 to 180 °C.
For `Fc1cc(Cl)ccc1-n1nc2c(c1Cl)CCCC2` the value was 82 to 85 °C; for `O=C(O)C[C@@H]1Cc2cccc3c2[C@@H](CCC3)C1` (relative stereo), 115 to 116 °C; for `CC(=O)C(=NNc1ccccc1)C(=O)OCC(C)C`, 45 to 50 °C.
Consider `OCc1snc(Cl)c1Cl`, for which the melting point was in the range of 94 to 95 °C.
On to `Cc1ccc(C(C)(C)C)c(SC2=C(O)CC(CCc3ccccc3)(c3ccc(OCCO)cc3)OC2=O)c1` (centres undefined), for which the melting point lay in the range of 70 to 73 °C.
Molecule `CN1C(=O)CN=C(c2ccccc2F)c2cc(C#N)ccc21` had a melting point of 177 °C.
The molecule `CCOC(=O)C=C(C)C=CC=C(C)C=Cc1c(Cl)cc(OC)cc1Cl` registered a melting point of 117 to 118 °C.
`O=C(c1ccc(Cl)c([N+](=O)[O-])c1)c1ccc(F)cc1F` displayed a melting point of 90.5 °C.
Consider `C=CCOc1cc(OC(=S)N2CCSC2)ccc1Cl`, for which the melting point lay within 104 to 106 °C.
Molecule `CCCCCc1ccc(-c2ccc(C3CCC(=O)O3)cc2)cc1` (single isomer, unassigned) had a melting point of 98.8 °C.
Molecule `COc1ccc(/C=C/C(=O)c2ccc(CC3SC(=O)NC3=O)cc2)cc1` (centres undefined) showed a melting point of 177 to 180 °C.
The molecule `CCOC(=O)CC(=NNc1ccc(C(=O)O)cc1C)C(C)=O` displayed a melting point of 161 to 162 °C.
The molecule `C(=Cc1c[nH]cn1)CC(c1ccccc1)c1ccccc1` came in with a melting point greater than 240 °C.
The same measure for `Fc1cc(F)c(-c2c(Cl)nc3nccnc3c2Cl)c(F)c1`: 139 to 141 °C; for `CN(C(CCN1C(=O)c2ccccc2C1=O)C(=O)NO)S(=O)(=O)c1ccc(Oc2ccc(F)cc2)cc1` (centres undefined): 100 to 101 °C; for `CCC(=S)N1CCC[C@H]1C(=O)O`: 123 to 124 °C.
The molecule `CC1SC(=O)NN=C1c1ccc2c(c1)C(=NNC(N)=S)C(=O)N2` (centres undefined) returned a melting point of 300 °C.
For `CN1CCN(c2ncnc3c(NC(=O)c4c(Cl)cccc4Cl)cccc23)C1=O` the value was greater than 250 °C.
For `CCOC(=O)c1cnn2c(NCc3ccc(-c4ccccc4C#N)cc3)ccnc12` the value was 148 to 150 °C; for `CC(CNc1ccc(C(=O)O)cc1)Oc1ccccc1` (centres undefined), 140 to 144 °C; for `CCCCCCCCC(C)(C)c1cc(=O)c2cc(O)ccc2o1`, 257 °C.
`Cc1cc2c(c(OCC(=O)c3ccc(C(C)C)cc3)c1)CCC2`: the melting point fell in the range of 68 to 69 °C.
Molecule `CCOC(=O)c1ccc(-c2ccc(-c3ccc(OC)cc3)c(-c3ccc4c(c3)C(C)(C)CCC4(C)C)c2)cc1` returned a melting point of 112 to 115 °C.
On to `Cc1c(-c2ccccc2)sc2nc(Nc3ccccc3)[nH]c(=O)c12`, for which the melting point fell in the range of 270 to 290 °C.
`COc1cc(OC)nc(Cc2nscc2C(=O)N(C)c2ccccc2)n1` displayed a melting point of 92 to 93 °C.
For `O=C1CCC(CCc2ccc(-n3ccnc3)cc2)=NN1`, the melting point lay within 195 to 196 °C.
The same measure for `CC/C=C\C=C/CCCCCCCCCC=O`: 7 to 8 °C.
`O=C1c2ccccc2CC(=NO)c2ccccc21` showed a melting point of 186 °C.
As for `O=C(Nc1ccc(C2=NOC(c3cc(Cl)cc(Cl)c3)(C(F)(F)F)C2)cc1)C(F)(F)F` (centres undefined), the melting point is 45 to 52 °C.
The molecule `CCCOc1ccc(S(=O)(=O)N2CCN(CCOC(=O)OCC)CC2)cc1-c1nc2c(CCC)cn(CC)c2c(=O)[nH]1` returned a melting point of 135 to 136 °C.
